Measured values reported in US20230210890A1, “COMPOSITIONS AND METHODS OF TREATING COVID-19 WITH HEPARIN OR OTHER NEGATIVELY CHARGED MOLECULES” (Siemens Healthcare Diagnostics Inc., priority 2020, published 2023).

Tests used:
[1] = tested on: hospitalized patients with Covid-19; details: WHO Solidarity Trial; cited from earlier work
SARS CoV-2 = details: whole blood or plasma samples collected with the anticoagulant
[2] = tested on: adults with mild COVID-19; details: cited from earlier work

| Compound | effect on hospitalized patients with Covid-19 [1] | inhibition of certain SARS CoV-2 assays (SARS CoV-2) | also measured |
| --- | --- | --- | --- |
| CCN(CCO)CCCC(C)Nc1ccnc2cc(Cl)ccc12 (centres unmarked) [hydroxychloroquine] | little or no effect | – | – |
| Cc1cccc(C)c1OCC(=O)N[C@@H](Cc1ccccc1)[C@@H](O)C[C@H](Cc1ccccc1)NC(=O)[C@H](C(C)C)N1CCCNC1=O [lopinavir] | little or no effect | – | – |
| heparin sodium [sodium heparin] | – | inhibited | – |
| ivermectin | – | – | effect on the duration of symptoms [2]: not have a significant effect |
| lithium heparin | – | inhibited | – |
